Laboratory results: patent US20250332173A1, “COMPOUNDS AND METHODS FOR MODULATING NUCLEIC ACID SPLICING” (REMIX THERAPEUTICS INC., priority 2021, published 2025)
Read-outs that look alike come from different tables or passages of the source.

What was measured:
[1] = tested on: HTT mRNA; assay: RT-qPCR splicing assay, HTT canonical junction (CJ) and alternative junction (AJ) mRNA; assay type: cell-based, human; settings: Homo sapiens; for AC50: increase in HTT alternative junction (AJ) mRNA, read-out: HTT AJ AC50
Outline: (§1)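 A673 cells (normalized to PPIA) or K562 cells (normalized to GAPDH or GUSB) were treated 24 h at 37 °C with an 11-point 3-fold dilution series, top 10 uM, DMSO ≤0.25%. Cell lysates went to one-step RT-qPCR measuring canonical- and alternative-junction MYB or HTT transcripts.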

[2] = tested on: MYB mRNA; assay: RT-qPCR splicing assay, MYB canonical junction (CJ) and alternative junction (AJ) mRNA; assay type: cell-based, human; settings: Homo sapiens; for AC50: increase in MYB alternative junction (AJ) mRNA, read-out: MYB AJ AC50
Outline: as §1

[3] = tested on: SMN2 mRNA; assay: RT-qPCR splicing assay, SMN2 canonical junction (CJ) mRNA; assay type: cell-based, human; settings: Homo sapiens
Outline: (§2)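 Read-out is canonical exon-exon junction mRNA quantified by RT-qPCR against a GAPDH, GUSB or PPIA control. Cells (A673 or K562) received compound for 24 h, top final dose 10 uM in an 11-point 3-fold series.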

[4] = tested on: Target C; assay: RT-qPCR splicing assay panel, Target C canonical junction (CJ) mRNA; assay type: cell-based, human; settings: Homo sapiens
Outline: as §2

[5] = tested on: K562 (human chronic myelogenous leukemia) cells; assay: Cell Titer Glo 2.0 cell viability assay; assay type: cell-based; settings: Homo sapiens, K562, 72 h, K562 cells, 72 hours, Cell Titer Glo 2.0; read-out: K562 GI50
[6] = tested on: Target C; assay: HiBiT protein abundance assay, Target C (Promega Nano-Glo HiBiT Lytic Detection System, knock-in K562 cell line); assay type: cell-based, human; settings: Homo sapiens, K562, 24 h, HiBiT K562 cell line, 24 hours, top dose 10 μM; read-out: Effect on protein abundance, Target C (IC50 category)
Experimental: (§3) • Promega Nano-Glo HiBiT Lytic Detection System (cat #N3030) • Corning 384-well TC-treated microplates (cat #3570) • Synthego Engineered Cells Knock-In Clones
(§4) Cells were maintained in IMDM with 10% FBS. Before the assay, cells were diluted with […] growth media (IMDM+[…] media) and were seeded in a 384-well plate at a density of 10,000 cells/well (for each cell line listed in Table 5). Each compound was prepared as a 10-point 3-fold serial dilution in DMSO with the top dose at a final concentration of 10 μM in the well. Unmodified K562 cells were added at the previously specified density with DMSO to serve as an assay baseline and positive control (PC) and DMSO only with the respective modified cell lines was added to the negative control (NC) columns. Final DMSO concentration was kept at or below 0.25%. Treated cell plates were placed in an incubator at 37° C. with […] for 24 hours. After 24 hours, 25 μL of Complete HiBit Lytic reagent was added to each well at room temperature (e.g. one plate requiring 10 mL Lytic Buffer, 100 μL LgBiT Protein, 200 μL Lytic Substrate), shaken for 5 minutes at 600 RPM, then left to sit for 10 minutes for signal to stabilize before reading on a Spark Cyto plate reader (Tecan) with a 500 ms measurement time.
(§5) To determine compound effects on protein abundance of each target in Table 5, the percent response for each respective cell line was calculated at each compound concentration as follows:
(§6) For the normalized response at each concentration, a four-parameter logistical regression was fit to the data and the response was interpolated at the […] to determine a concentration for protein abundance at […] the untreated control.

[7] = tested on: MYB; assay: HiBiT protein abundance assay, MYB HiBiT K562 cell line; assay type: cell-based, human; settings: HiBiT K562 cell line, 24 hours, top dose 10 μM; read-out: Effect on protein abundance, MYB (IC50 category)
Experimental: (§7) Compounds described herein were used to screen for effects on quantitative protein abundance using a HiBit assay system (Promega). Quantitative protein abundance was determined by measuring the protein levels of HiBit-tagged protein targets expressed in cell culture via luminescence using the Nano-Glo HiBiT Lytic Detection System, which uses a split complementation assay format to reconstitute NanoBiT enzyme to generate a luminescent signal. A protein abundance assay was developed such that endogenous protein targets could be modified with the HiBiT peptide tag and their abundance could be assessed after compound treatment. Briefly, K562 cell lines containing a HiBiT-modification were treated with various compounds described herein (e.g., compounds of Formulas (I), (II), (III), (IV), (V), (VI), (VII), (VIII), or (IX)). After treatment for 24 hours, the protein abundance of a specific target was determined by measuring luminescence.
as §3, §4, §5, §6

[8] = tested on: HTT; assay: HiBiT protein abundance assay, HTT HiBiT K562 cell line; assay type: cell-based, human; settings: HiBiT K562 cell line, 24 hours, top dose 10 μM; read-out: Effect on protein abundance, HTT (IC50 category)
Experimental: as §7, §3, §4, §5, §6

[9] = decrease in HTT canonical junction (CJ) mRNA, RT-qPCR, read-out: HTT CJ IC50
[10] = decrease in MYB canonical junction (CJ) mRNA, RT-qPCR, read-out: MYB CJ IC50
[11] = canonical junction qPCR panel, Table 5, read-out: HTT (decrease in CJ mRNA levels, IC50)
[12] = canonical junction qPCR panel, Table 5, read-out: MYB (decrease in CJ mRNA levels, IC50)
[13] = canonical junction qPCR panel, Table 5, read-out: SMN2 (decrease in CJ mRNA levels, IC50)
[14] = canonical junction qPCR panel, Table 5, read-out: Target C (decrease in CJ mRNA levels, IC50)

Cc1cn2cc(-c3cc(F)c4c(=O)n(C5CCNC5)cnc4c3)cc(F)c2n1 (stereo not drawn) [Compound 344]
IC50 [1, 9]: 1000 to 10000 nM
AC50 ([1]; RT-qPCR): 1000 to 10000 nM
IC50 ([1]; Table 5 panel, canonical junction qPCR, compound concentration having 50% response in CJ decrease, read-out: HTT IC50 (decrease in CJ mRNA levels)): 1000 to 10000 nM
IC50 ([2]; Table 5 panel, canonical junction qPCR, compound concentration having 50% response in CJ decrease, read-out: MYB IC50 (decrease in CJ mRNA levels)): 100 to 1000 nM
IC50 [2, 10]: 100 to 1000 nM
AC50 ([2]; RT-qPCR): 100 to 1000 nM
IC50 ([3]; Table 5 panel, canonical junction qPCR, compound concentration having 50% response in CJ decrease, read-out: SMN2 IC50 (decrease in CJ mRNA levels)): < 100 nM
IC50 ([4]; Table 5 panel, canonical junction qPCR, compound concentration having 50% response in CJ decrease, read-out: Target C IC50 (decrease in CJ mRNA levels)): 1000 to 10000 nM
GI50 [5]: 1000 to 10000 nM
IC50 [6]: > 10000 nM

Cc1cn2nc(-c3cc(O)c4c(=O)n(C5CCNC6(CC6)C5)ccc4c3)cc(C)c2n1 (stereo not drawn) [Compound 466, 6-(2,8-dimethylimidazo[1,2-b]pyridazin-6-yl)-8-hydroxy-2-(4-azaspiro[2.5]octan-7-yl)isoquinolin-1(2H)-one]
IC50 [7]: < 100 nM
IC50 [8]: < 100 nM
GI50 [5]: < 100 nM
IC50 [6]: < 100 nM

Cc1cn2nc(-c3cc(C)c4c(=O)n([C@H]5CCNC6(CC6)C5)ncc4c3)cc(C)c2n1 [Compound 467]
IC50 [7]: 100 to 1000 nM
IC50 [8]: 100 to 1000 nM
GI50 [5]: 1000 to 10000 nM
IC50 [6]: 100 to 1000 nM

Cc1cn2nc(-c3cc(C)c4c(=O)n([C@@H]5CCNC6(CC6)C5)ncc4c3)cc(C)c2n1 [Compound 468]
IC50 [7]: < 100 nM
IC50 [8]: < 100 nM
GI50 [5]: 100 to 1000 nM
IC50 [6]: < 100 nM

Cc1cn2nc(-c3cc(O)c4c(=O)n([C@H]5CCNC6(CC6)C5)ncc4c3)cc(C)c2n1 [Compound 469]
IC50 [7]: < 100 nM
IC50 [8]: < 100 nM
GI50 [5]: < 100 nM
IC50 [6]: < 100 nM

Cc1cn2nc(-c3cc(O)c4c(=O)n([C@@H]5CCNC6(CC6)C5)ncc4c3)cc(C)c2n1 [Compound 470]
IC50 [7]: 100 to 1000 nM
IC50 [8]: < 100 nM
GI50 [5]: 100 to 1000 nM
IC50 [6]: < 100 nM

Cc1cn2nc(-c3cc(F)c4c(=O)n(C5CCNCC5)cnc4c3)cc(C#N)c2n1 [Compound 501]
IC50 [7]: < 100 nM
IC50 [8]: < 100 nM
GI50 [5]: 100 to 1000 nM
IC50 [6]: < 100 nM

Cc1cn2c(n1)CCC(c1cc(F)c3c(=O)n(C4CCNCC4)cnc3c1)C2 (stereo not drawn) [Compound 502, 5-fluoro-7-{2-methyl-5H,6H,7H,8H-imidazo[1,2-a]pyridin-6-yl}-3-(piperidin-4-yl)quinazolin-4-one]
IC50 [7]: > 10000 nM
IC50 [8]: > 10000 nM
GI50 [5]: > 10000 nM
IC50 [6]: > 10000 nM

Cc1cn2nc(-c3cc4ncn(C5CCNCC5)c(=O)c4cc3O)cc(C)c2n1 [Compound 503, 7-{2,8-dimethylimidazo[1,2-b]pyridazin-6-yl}-6-hydroxy-3-(piperidin-4-yl)quinazolin-4-one]
IC50 [7]: < 100 nM
IC50 [8]: < 100 nM
GI50 [5]: 1000 to 10000 nM
IC50 [6]: 100 to 1000 nM

COc1cc2c(=O)n(C3CCNCC3)cnc2cc1-c1cc(C)c2nc(C)cn2n1 [Compound 504, 7-{2,8-dimethylimidazo[1,2-b]pyridazin-6-yl}-6-methoxy-3-(piperidin-4-yl)quinazolin-4-one]
IC50 [7]: > 10000 nM
IC50 [8]: > 10000 nM
GI50 [5]: > 10000 nM
IC50 [6]: > 10000 nM

Cc1c(O)c(-c2ccc3c(=O)n(C4CCNCC4)cnc3n2)cc2cn(C)nc12 [Compound 505, 7-(6-hydroxy-2,7-dimethyl-2H-indazol-5-yl)-3-(piperidin-4-yl)pyrido[2,3-d]pyrimidin-4(3H)-one]
IC50 [7]: 100 to 1000 nM
IC50 [8]: 100 to 1000 nM
GI50 [5]: 100 to 1000 nM
IC50 [6]: 100 to 1000 nM

COc1c(-c2ccc3c(=O)n(C4CCNCC4)cnc3n2)cc2cn(C)nc2c1C [Compound 506, 7-(6-methoxy-2,7-dimethylindazol-5-yl)-3-(piperidin-4-yl)pyrido[2,3-d]pyrimidin-4-one]
IC50 [7]: > 10000 nM
IC50 [8]: > 10000 nM
GI50 [5]: > 10000 nM
IC50 [6]: > 10000 nM

Cc1cn2nc(-c3ccc4c(=O)n([C@H]5CCNC6(CC6)C5)ncc4n3)cc2c(C)n1 [Compound 1549, 6-[(7S)-4-azaspiro[2.5]octan-7-yl]-2-(4,6-dimethylpyrazolo[1,5-a]pyrazin-2-yl)pyrido[2,3-d]pyridazin-5-one]
IC50 [1, 9]: 100 to 1000 nM
AC50 ([1]; RT-qPCR): 100 to 1000 nM
IC50 [1, 11]: 100 to 1000 nM
IC50 [2, 12]: 1000 to 10000 nM
IC50 [2, 10]: 1000 to 10000 nM
AC50 ([2]; RT-qPCR): 1000 to 10000 nM
IC50 [3, 13]: 100 to 1000 nM
IC50 [4, 14]: 1000 to 10000 nM
GI50 [5]: 1000 to 10000 nM

Cc1cn2nc(-c3ccc4c(=O)n([C@H]5CCN[C@@H](C6CC6)C5)ncc4n3)cc(C)c2n1 [Compound 1550]
IC50 [1, 9]: 100 to 1000 nM
AC50 ([1]; RT-qPCR): 100 to 1000 nM
IC50 [1, 11]: 100 to 1000 nM
IC50 [2, 12]: 100 to 1000 nM
IC50 [2, 10]: 100 to 1000 nM
AC50 ([2]; RT-qPCR): 100 to 1000 nM
IC50 [3, 13]: 100 to 1000 nM
IC50 [4, 14]: 100 to 1000 nM
GI50 [5]: 1000 to 10000 nM

Cc1cn2nc(-c3ccc4c(=O)n([C@@H]5CCN[C@@H](C6CC6)C5)ncc4n3)cc(C)c2n1 [Compound 1551]
IC50 [1, 9]: 100 to 1000 nM
AC50 ([1]; RT-qPCR): 100 to 1000 nM
IC50 [1, 11]: 100 to 1000 nM
IC50 [2, 12]: 100 to 1000 nM
IC50 [2, 10]: 100 to 1000 nM
AC50 ([2]; RT-qPCR): 100 to 1000 nM
IC50 [3, 13]: < 100 nM
IC50 [4, 14]: 100 to 1000 nM
GI50 [5]: 100 to 1000 nM

CN1CCN(c2ccc3ncn(-c4cc(F)c5nn(C)cc5c4)c(=O)c3c2)CC1 [Compound 2194]
IC50 [1, 9]: 1000 to 10000 nM
AC50 ([1]; RT-qPCR): 1000 to 10000 nM
IC50 [1, 11]: 1000 to 10000 nM
IC50 [2, 12]: 1000 to 10000 nM
IC50 [2, 10]: 1000 to 10000 nM
AC50 ([2]; RT-qPCR): 1000 to 10000 nM
IC50 [3, 13]: 1000 to 10000 nM
IC50 [4, 14]: 1000 to 10000 nM
GI50 [5]: 1000 to 10000 nM
